We go through four molecules from patent US12263143B2, “Ionic channel modulation as a method for treating tumors through inflammasome activation” (priority 2019, dated 2025).

In one assay the test system is NLRP3 inflammasome. The experiment in a line: NLRP3 inflammasome activation in LPS/ATP-treated BMDCs, IL-1β in culture supernatant by ELISA. In kind it is cell-based. Conditions: mouse BMDCs, LPS 0.25 μg/ml for 3 hr and ATP 0.5 mM, vs vehicle control (DMSO). The procedure: (§1) Triggering inflammasome activation: Mouse bone marrow-derived dendritic cells (BMDCs) are treated with LPS and ATP to trigger NLRP3 inflammasome activation in the presence of vehicle control (DMSO) or the indicated ion channels modulators. IL-1β is measured in the culture supernatant by ELISA. • [IL-1β was used to measure the degree of inflammasome activation] • b. Inhibiting TORID-dependent ion flux: CHO-7 cells were transfected with TORID-1 and TORID-2 plasmids. Cells were then loaded with the Na^+-sensitive fluorescent dye-ANG-2-. ANG-2 mean fluorescence intensity (MFI) subtracting in each condition the MFI obtained in Na+-free buffer substituted with NMDG+ is shown. Cells left untreated or treated with the indicated drugs were studied • [MFI was used to measure the degree of inhibition of TORID-dependent ion flux.
(§2) IL-1β was measured in the culture supernatant by ELISA. • B CHO-7 cells were transfected with Tmem176b (TORID-1) and Tmem176a (TORID-2)-mcherry-coding pSecTag2B plasmids. Cells were then loaded with the Na^+-sensitive fluorescent dye Asante NaTRIUM Green 2 (ANG-2). ANG-2 mean fluorescence intensity (MFI) subtracting in each condition the MFI obtained in Na^+-free buffer substituted with NMDG^+ is shown. Cells left untreated or treated with the indicated drugs were studied.
A general note: ELISA stands for enzyme-linked immunosorbent assay.

Assay [1] relates to Tmem176b (TORID-1) and Tmem176a (TORID-2). The experiment in a line: TORID-dependent ion flux, ANG-2 Na+-sensitive dye MFI in transfected CHO-7 cells. The class given is cell-based. Conditions: CHO-7 cells transfected with Tmem176b and Tmem176a-mcherry pSecTag2B plasmids, vs untreated cells. As for the experimental part:
as §1, §2

In another assay the target is TORID (Homo sapiens, UniProt Q3YBM2). Particulars: prior application WO2018203262A1; cited from earlier work.
TORID, sequence (Q3YBM2 whole entry): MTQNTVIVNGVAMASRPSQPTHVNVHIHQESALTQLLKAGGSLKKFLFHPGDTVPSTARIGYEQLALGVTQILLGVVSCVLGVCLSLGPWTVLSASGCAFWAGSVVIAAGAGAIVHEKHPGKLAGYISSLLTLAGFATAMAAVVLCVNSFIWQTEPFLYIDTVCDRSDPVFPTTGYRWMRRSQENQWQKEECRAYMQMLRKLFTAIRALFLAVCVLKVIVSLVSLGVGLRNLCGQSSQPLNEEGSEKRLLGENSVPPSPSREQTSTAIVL
A further assay has as its system two tumor types. Conditions: anti-PD-1 resistant mice, WO2018203262A1; cited from earlier work.
In a further assay the test system is inflammasome (NLRP3). Particulars: prior application WO2018203262A1; cited from earlier work.

For `CCN(CC)CC(=O)Nc1c(C)cccc1C` [Lidocaine], in the assay on NLRP3 inflammasome, the “NLRP3 inflammasome activation (IL-1β in culture supernatant by ELISA)” value (“NLRP3 inflammasome activation” below) is listed as “enhance NLRP3 inflammasome activation”. Besides, the “TORID activity (ANG-2 MFI, Na+-free NMDG+ buffer MFI subtracted)” value in assay [1] is “inhibit TORID activity”.

For `COC(=O)C1=C(C)NC(C)=C([N+](=O)[O-])C1c1ccccc1C(F)(F)F` (single isomer, unassigned; (+)) [(+)BAY K8644, Methyl 2,6-dimethyl-5-nitro-4-[2-(trifluoromethyl)phenyl]-1,4-dihydropyridine-3-carboxylate], the TORID activity entry at TORID is listed as “inhibited TORID activity”. Also, in the assay with two tumor types, the rate of survival entry is on record as “higher rate of survival”. The “inflammasome (NLRP3) expression” value in the assay with inflammasome (NLRP3) is given as “increased inflammasome (NLRP3) expression”.

Turning to `CCN(CC)CCNC(=O)c1ccc(N)cc1` [Procainamide], the “NLRP3 inflammasome activation” value with NLRP3 inflammasome is reported as “enhance NLRP3 inflammasome activation”. Also, the “TORID activity (ANG-2 MFI, Na+-free NMDG+ buffer MFI subtracted)” value in assay [1] is listed as “inhibit TORID activity”.

In the case of `CCN1C[C@]2(COC)[C@H](O)C[C@H](OC)[C@@]34[C@@H]5C[C@@]6(O)[C@H](OC(=O)c7ccccc7)[C@@H]5[C@@](OC(C)=O)([C@@H]([C@H](OC)[C@H]23)[C@@H]14)[C@@H](O)[C@@H]6OC` [Aconitine], the “NLRP3 inflammasome activation” value with NLRP3 inflammasome is “enhance NLRP3 inflammasome activation”. In assay [1], the “TORID activity (ANG-2 MFI, Na+-free NMDG+ buffer MFI subtracted)” value is “inhibit TORID activity”.
